pIC50: −log10 of the molar value. Values joined by “and” are separate entries in the source; they are usually repeats but may differ in a detail not shown here. Equal entries are not always repeated.
System: KRAS-mutant PDC complex spheroid viability
Test: Anticancer human tumor 186277-243-T-J2-PDC patient-derived colon adenocarcinoma cell line growth inhibition [KRAS2]
Conditions: for viability, T/C: stronger effect = lower value
Outline: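 KRAS-mutant tumor cells were grown as spheroids with HUVEC endothelial cells and human MSCs as stroma. Targeted agents were tested alone and with KRAS pathway inhibitors. Doses started at or near clinical Cmax, or 10 microM, descending half-log.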

[1] = curve of first compound, second compound 0.1 µM
[2] = curve of first compound, second compound 0.316 µM
[3] = curve of first compound, second compound 1 µM
[4] = curve of first compound, second compound 3.16 µM
[5] = curve of first compound, second compound 10 µM
[6] = second compound 0.1 µM, first compound 0.0316 µM
[7] = second compound 0.1 µM, first compound 0.1 µM
[8] = second compound 0.1 µM, first compound 0.316 µM
[9] = second compound 0.1 µM, first compound 1 µM
[10] = second compound 0.1 µM, first compound 3.16 µM
[11] = second compound 0.316 µM, first compound 0.0316 µM
[12] = second compound 0.316 µM, first compound 0.1 µM
[13] = second compound 0.316 µM, first compound 0.316 µM
[14] = second compound 0.316 µM, first compound 1 µM
[15] = second compound 0.316 µM, first compound 3.16 µM
[16] = second compound 1 µM, first compound 0.0316 µM
[17] = second compound 1 µM, first compound 0.1 µM
[18] = second compound 1 µM, first compound 0.316 µM
[19] = second compound 1 µM, first compound 1 µM
[20] = second compound 1 µM, first compound 3.16 µM
[21] = second compound 3.16 µM, first compound 0.0316 µM
[22] = second compound 3.16 µM, first compound 0.1 µM
[23] = second compound 3.16 µM, first compound 0.316 µM
[24] = second compound 3.16 µM, first compound 1 µM
[25] = second compound 3.16 µM, first compound 3.16 µM
[26] = second compound 10 µM, first compound 0.0316 µM
[27] = second compound 10 µM, first compound 0.1 µM
[28] = second compound 10 µM, first compound 0.316 µM
[29] = second compound 10 µM, first compound 1 µM
[30] = second compound 10 µM, first compound 3.16 µM
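Wherever viability, T/C is given: viability read after seven days of compound exposure; 100% = DMSO vehicle-treated spheroids so lower means less viable.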

Cn1nccc1Nc1nccc(-c2cc3c(s2)C(C)(C)N(CCN2CCOCC2)C3=O)n1 + C=CC(=O)N1CCN(c2nc(=O)n(-c3c(C)ccnc3C(C)C)c3nc(-c4c(O)cccc4F)c(F)cc23)C(C)C1
pIC50 [1]: 6.38 | pIC50 [2]: 6.29 | pIC50 [3]: 6.30 | pIC50 [4]: 6.54 | pIC50 [5]: 6.99 | viability, T/C [6]: 101% | viability, T/C [7]: 89.7% | viability, T/C [8]: 62.6% | viability, T/C [9]: 10.8% | viability, T/C [10]: 5.84% | viability, T/C (second compound 0.1 µM, first compound 10 µM): 9.07% | viability, T/C [11]: 92.9% | viability, T/C [12]: 91.9% | viability, T/C [13]: 73.7% | viability, T/C [14]: 15.9% | viability, T/C [15]: 7.21% | viability, T/C (second compound 0.316 µM, first compound 10 µM): 9.45% | viability, T/C [16]: 97.5% | viability, T/C [17]: 85.5% | viability, T/C [18]: 74.2% | viability, T/C [19]: 12.6% | viability, T/C [20]: 8.16% | viability, T/C (second compound 1 µM, first compound 10 µM): 10.1% | viability, T/C [21]: 89.1% | viability, T/C [22]: 83.5% | viability, T/C [23]: 47.4% | viability, T/C [24]: 9.35% | viability, T/C [25]: 11.3% | viability, T/C (second compound 3.16 µM, first compound 10 µM): 9.1% | viability, T/C [26]: 70.3% | viability, T/C [27]: 50.8% | viability, T/C [28]: 12.8% | viability, T/C [29]: 5.63% | viability, T/C [30]: 2.98% | viability, T/C (second compound 10 µM, first compound 10 µM): 2.56%

CC1COCCN1c1cc(-c2ccnn2C)c2ccnc(-c3ccn[nH]3)c2n1 (stereo not drawn) + CNCc1ccccc1-c1csc(C(C)Nc2nc(C)nc3cc(OC)c(OC)cc23)c1
pIC50 [1]: 7.70 | pIC50 [2]: 7.67 | pIC50 [3]: 7.71 | pIC50 [4]: > 8.00 | pIC50 [5]: > 8.00 | viability, T/C (second compound 0.1 µM, first compound 0.01 µM): 97.7% | viability, T/C [6]: 18.4% | viability, T/C [7]: 5.46% | viability, T/C [8]: 3.99% | viability, T/C [9]: 3.43% | viability, T/C [10]: 4.08% | viability, T/C (second compound 0.316 µM, first compound 0.01 µM): 98.4% | viability, T/C [11]: 24.2% | viability, T/C [12]: 8.14% | viability, T/C [13]: 3.97% | viability, T/C [14]: 3.29% | viability, T/C [15]: 4.28% | viability, T/C (second compound 1 µM, first compound 0.01 µM): 98.9% | viability, T/C [16]: 15.5% | viability, T/C [17]: 4.99% | viability, T/C [18]: 3.97% | viability, T/C [19]: 3.82% | viability, T/C [20]: 4.51% | viability, T/C (second compound 3.16 µM, first compound 0.01 µM): 23.7% | viability, T/C [21]: 1.99% | viability, T/C [22]: 0.3% | viability, T/C [23]: 0.17% | viability, T/C [24]: 0.22% | viability, T/C [25]: 0.31% | viability, T/C (second compound 10 µM, first compound 0.01 µM): 0.13% | viability, T/C [26]: 0.1% | viability, T/C [27]: 0.09% | viability, T/C [28]: 0.09% | viability, T/C [29]: 0.1% | viability, T/C [30]: 0.15%

COc1cc(Nc2ncc3c(n2)-c2ccc(Cl)cc2C(c2c(F)cccc2OC)=NC3)ccc1C(=O)O
viability, T/C (compound 0.0316 µM): 37.6% [middle of 5 runs] | viability, T/C (compound 0.1 µM): 34.1% [middle of 5 runs] | viability, T/C (compound 0.316 µM): 33.4% [middle of 5 runs] | viability, T/C (compound 1 µM): 37% [middle of 5 runs] | viability, T/C (compound 3.16 µM): 46.8% [middle of 5 runs] | viability, T/C (compound 10 µM): 50.4% [middle of 5 runs] | pIC50 (curve of compound): > 7.50

CC(C)NCC(C(=O)N1CCN(c2ncnc3c2C(C)CC3O)CC1)c1ccc(Cl)cc1 (stereo not drawn)
viability, T/C (compound 0.0316 µM): 89.6% [middle of 5 runs] | viability, T/C (compound 0.1 µM): 89.8% [middle of 5 runs] | viability, T/C (compound 0.316 µM): 73% [middle of 5 runs] | viability, T/C (compound 1 µM): 39.9% and 40.4% (2×) and 33.2% | viability, T/C (compound 10 µM): 12.9% [middle of 5 runs] | IC50 (curve of compound): 746 nM [middle of 5 runs]
